Results published in patent US4376125A, “Aminobenzlpropranolol and pharmaceutical preparation thereof” (University of Virginia Alumni Patents Foundation, priority 1980, dated 1983).
Read-outs that look alike come from different tables or passages of the source. Each block holds one molecule with its values, some of them ahead of it.

Assays:
[1] = test system: isolated atria (β-adrenergic receptors); assay: Contractility of isolated atria, species not distinguished; assay type: cell-based, rat or guinea pig
Procedure: For the tests atrial preparations were obtained by excising hearts from 200-250 g male Wistar rats or 300-400 g male Hartley guinea pigs. All of the animals were pretreated with reserpine (5 mg/kg) administered interperitoneally 15-18 hours before the animals were killed by a blow to the back of the neck. Left atria were maintained at 30° C. […] The buffer was vigorously bubbled with 95% O2 -5% CO2. Atria hooked to platinum-iridium electrodes were stimulated at 1 second intervals with 10 msec monophasic pulses at twice the threshold voltage for contractions. Developed tension was recorded on Beckman oscillographic recorders (Dynographs) and the signals processed by a DEC LSI-11 microcomputer. […] The inhibition is time and dose dependent. […] The cumulative dose response curves to (-)-isoproterenol were determined (n=2-3). At the termination of each experiment, maximum tension was determined by exposing atria to 100 μM isobutylmethylxanthine. […] The degree of inhibition was similar to that observed in glioma cells. […] (2) Efficacy was also assessed by using the phosphodiesterase inhibitor, isobutylmethylxanthine, which is able to elicit a maximal response by itself.

[2] = test system: cat papillary muscle (β-adrenergic receptors); details: cited from earlier work
[3] = test system: rat atria (β-adrenergic receptors); assay: Isoproterenol-increased tension development in isolated rat atria; assay type: cell-based; details: for EC50: Rattus norvegicus, control rat atria, read-out: apparent KAct of isoproterenol
Procedure: (§1) For the tests atrial preparations were obtained by excising hearts from 200-250 g male Wistar rats or 300-400 g male Hartley guinea pigs. All of the animals were pretreated with reserpine (5 mg/kg) administered interperitoneally 15-18 hours before the animals were killed by a blow to the back of the neck. Left atria were maintained at 30° C. […] The buffer was vigorously bubbled with 95% O2 -5% CO2. Atria hooked to platinum-iridium electrodes were stimulated at 1 second intervals with 10 msec monophasic pulses at twice the threshold voltage for contractions. Developed tension was recorded on Beckman oscillographic recorders (Dynographs) and the signals processed by a DEC LSI-11 microcomputer. […] The inhibition is time and dose dependent. […] The cumulative dose response curves to (-)-isoproterenol were determined (n=2-3). At the termination of each experiment, maximum tension was determined by exposing atria to 100 μM isobutylmethylxanthine.

[4] = test system: β-adrenergic receptors of guinea pig taenia; details: receptors photolyzed with isoproterenol or 2-(2-hydroxy-3-isopropylaminopropoxy) iodobenzene; cited from earlier work
β-adrenergic receptors [5] = molecular target: T1, β-adrenergic receptors (Rattus norvegicus, UniProt P18090); assay: Displacement of specific (125I)-iodohydroxybenzylpindolol binding, acute or after washing, in intact C6 rat glioma cells
T1 construct: β-adrenergic receptors in intact living cells; endogenous in cells; host or cells: C6 rat glioma cells, 2B subclone
T1 sequence (P18090 whole entry): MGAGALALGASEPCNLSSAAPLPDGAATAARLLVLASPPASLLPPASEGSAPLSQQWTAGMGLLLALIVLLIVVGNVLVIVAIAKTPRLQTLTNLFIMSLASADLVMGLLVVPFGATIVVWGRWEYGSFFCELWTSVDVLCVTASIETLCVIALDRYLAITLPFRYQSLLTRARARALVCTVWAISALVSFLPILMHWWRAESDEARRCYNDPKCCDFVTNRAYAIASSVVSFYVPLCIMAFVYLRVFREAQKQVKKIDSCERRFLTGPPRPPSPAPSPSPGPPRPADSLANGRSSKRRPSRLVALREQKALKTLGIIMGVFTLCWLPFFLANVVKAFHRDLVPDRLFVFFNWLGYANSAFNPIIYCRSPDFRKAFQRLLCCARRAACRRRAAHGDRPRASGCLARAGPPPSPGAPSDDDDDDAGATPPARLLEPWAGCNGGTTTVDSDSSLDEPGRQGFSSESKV
Procedure: For the study involving glioma cells, C6 rat glioma cells, 2B subclone were grown in monolayer cultures by the technique described by Terasaki et al, J. Biol. Chem., 253, 5418-5425 in 16 mm plastic cluster dishes. In all experiments, the cells were changed from Ham's F-10 containing 10% fetal bovine serum growth medium to a simple salt medium containing 130 mM NaCl, 4 mM KCl, 0.6 mM MgSO4, 0.3 mM CaCl2, 5 mM sodium phosphate buffer (pH 7.4). All washing experiments involving glioma cells utilized this salt solution as the wash medium.
In other test plates, the cells were pretreated with aminobenzylpropranolol blocking agent and then washed repeatedly over a period of 3 hours at 37° C. before determination of [^125 I]-iodohydroxybenzylpindolol binding. For all points, n=3, which means that each data point is an average of three separate determinations. […] (This value was corrected for competition by (^125 I)-iodohydroxybenzylpindolol).

[6] = test system: intracellular cyclic AMP in isoproterenol-treated glioma cells (β-adrenergic receptors); assay: Isoproterenol-stimulated intracellular cyclic AMP accumulation in pretreated, washed C6 glioma cells; assay type: cell-based, rat; details: for increase of apparent activation constant for isoproterenol: 40 minutes, then washed 3 hours at 37° C.
Procedure: The ability of the present β-adrenergic receptor blocking compound to function as an effective β-adrenergic blocking agent for the selective elimination of cellular β-adrenergic receptors is apparent from the following study on the interaction of aminobenzylpropranolol with glioma cells and mammalian atrium cells. For the study involving glioma cells, C6 rat glioma cells, 2B subclone were grown in monolayer cultures by the technique described by Terasaki et al, J. Biol. Chem., 253, 5418-5425 in 16 mm plastic cluster dishes. In all experiments, the cells were changed from Ham's F-10 containing 10% fetal bovine serum growth medium to a simple salt medium containing 130 mM NaCl, 4 mM KCl, 0.6 mM MgSO4, 0.3 mM CaCl2, 5 mM sodium phosphate buffer (pH 7.4). All washing experiments involving glioma cells utilized this salt solution as the wash medium. In experiments involving the glioma cells, specific (propranolol-displaceable) binding of (^125 I)-iodohydroxybenzylpindolol to C6 rat glioma cells was performed by the method developed by Terasaki et al (see above reference) with the exception that in all solutions phentolamine was omitted, and at the termination of the radioligand binding reaction, 0.1 mM (±)-propranololwas included in the cell wash solution.
In the study glioma cells were treated for 40 minutes with zero, 0.1 μM (Δ) or 1 μM aminobenzylpropranolol and then washed with salt solution for 3 hours at 37° C. After washing, the cells were treated for 20 minutes with ((-)-isoproterenol) and extracted with HCl to determine the amount of cyclic AMP. For all data points, n=3.

guinea pig atria = assay: Positive inotropic response of isolated guinea pig atria to histamine; assay type: cell-based; details: guinea pig atria pretreated with aminobenzylpropranolol
Procedure: Experiments were also conducted to determine the extent of aminobenzylpropranolol antagonism to isoproterenol-stimulated contractility in isolated atria. For the tests atrial preparations were obtained by excising hearts from 200-250 g male Wistar rats or 300-400 g male Hartley guinea pigs. All of the animals were pretreated with reserpine (5 mg/kg) administered interperitoneally 15-18 hours before the animals were killed by a blow to the back of the neck. Left atria were maintained at 30° C. (pH 7.4) in buffer containing: 118 mM NaCl, 4.75 mM KCl, 1.2 mM KH2 PO4, 1.2 mM MgSO4, 5.5 mM dextrose, 25 mM NaHCO3, and 1 mM CaCl2. The buffer was vigorously bubbled with 95% O2 -5% CO2. Atria hooked to platinum-iridium electrodes were stimulated at 1 second intervals with 10 msec monophasic pulses at twice the threshold voltage for contractions. Developed tension was recorded on Beckman oscillographic recorders (Dynographs) and the signals processed by a DEC LSI-11 microcomputer.
FIG. 4 contains the cumulative dose response curves to histamine treated atria (n=2-3).

[7] = test system: guinea pig atria (β-adrenergic receptors); assay: Isoproterenol-increased tension development in isolated guinea pig atria; assay type: cell-based; details: for shift in cumulative isoproterenol dose response curve: guinea pig atria
Procedure: as §1

β-adrenergic receptors [8] = molecular target: T1, β-adrenergic receptors; assay: Equilibrium saturation binding of (125I)-iodohydroxybenzylpindolol in treated and washed C6 glioma cells
Source text: All washing experiments involving glioma cells utilized this salt solution as the wash medium.
It would be predicted that the occupation of a receptor by a specific ligand should be considered as an effective loss of that receptor provided that the ligand dissociates sufficiently slowly or not at all. […] For all data points, n=3.

[9] = blocked by N-[2-hydroxy-3-(1-naphthoxy)-propyl]-N-bromoacetylethylenediamine
[10] = 1 μM for 50 minutes prior to washing

Molecule: CC(C)Cn1c(=O)n(C)c(=O)c2[nH]cnc21 [isobutylmethylxanthine, reference compound]
increase in developed tension ([1]; 100 μM isobutylmethylxanthine added to atria treated with 10 μM isoproterenol): less than 5%

Molecule: N-[2-hydroxy-3-(1-naphthoxy)-propyl]-N-bromoacetylethylenediamine
block of receptors ([2]; cat papillary muscle): irreversibly blocked

effect on tension in absence of inhibitor ([1]; 0.1 μM isoproterenol): maximally effective
EC50 ([3]; first dose response curve): 0.9 nM
EC50 ([3]; second dose response curve): 4.7 nM
Molecule: CC(C)NCC(O)c1ccc(O)c(O)c1 (stereo not shown) [isoproterenol, N-isopropylnoradrenaline, reference compound]
desensitization on multiple exposures (decrease in potency for isoproterenol) ([1]; control atria, not pretreated with the inhibitor): small degree of desensitization
inotropic and cyclic AMP responses to isoproterenol after irreversible block [2, 9]: maximal
potency of isoproterenol after irreversible block [2, 9]: decreased potency
maximal relaxation by isoproterenol in photolyzed tissue [4]: maximal relaxation could still be elicited
potency of isoproterenol in photolyzed tissue [4]: potency was decreased

sensitivity to isoproterenol of treated atria ([1]; 0.1 μM or 10 μM pretreatment, washed five times): decreased sensitivity to isoproterenol
efficacy (maximum response) of isoproterenol in treated atria ([1]; aminobenzylpropranolol-treated atria): unchanged
reversal of blockage by high concentrations of isoproterenol ([1]; multiple washes and rechallenges): did not reverse the blockage
maximal level of tension development ([1]; pretreated with 0.1 μM isoproterenol, washed, then 10 μM aminobenzylpropranolol): remained the same
Kd (β-adrenergic receptors [5]; 40 min at 37° C., corrected for competition by (125I)-iodohydroxybenzylpindolol, read-out: apparent KD in blocking one-half of the β-receptors): 8 nM
ability to block β-adrenergic receptors assayed acutely (vs after washing) (β-adrenergic receptors [5]; washed repeatedly over 3 hours at 37° C.): no significant difference
inhibition at 0.08 µM (β-adrenergic receptors [8]; 40 min, 80 nM, 40 minutes (37° C.), washed for 3 hours, read-out: maximum binding capacity diminished): 70%
maximum receptor binding (FIG. 2) (β-adrenergic receptors [8]; treated then washed with salt solution): marked reduction
Molecule: CC(C)(Cc1ccc(N)cc1)NCC(O)COc1cccc2ccccc12 (stereo not drawn) [aminobenzylpropranolol, 1-(p-amino-α,α-dimethylphenethylamino)-3-(1-naphthoxy)-2-propanol]
inhibitory activity in medium transferred from treated, washed atrium to fresh atrium ([1]; after washing): no inhibitory activity
antagonist potency, displacing (125I)-iodohydroxybenzylpindolol from β-adrenergic receptors (β-adrenergic receptors [5]; intact living glioma cells): relatively potent β-adrenergic antagonist
maximal attainable level of intracellular cyclic AMP ([6]; 0.1 μM and 1 μM): no change
increase of apparent activation constant for isoproterenol ([6]; 0.1 μM): 0.4 log units
increase of apparent activation constant for isoproterenol ([6]; 1 μM): 1.1 log units
increases in intracellular cyclic AMP in isoproterenol-treated glioma cells ([6]; only at submaximal concentrations of the catecholamine): inhibited
positive inotropic response to histamine (guinea pig atria): unaltered
shift in cumulative isoproterenol dose response curve ([3]; 0.1 μM for 1 hour, rat atria): 0.5 log
fold increase in apparent KAct for isoproterenol ([3]; 1 μM for 5 minutes prior to washing): 1.2 fold
fold increase in apparent KAct for isoproterenol ([3]; 1 μM for 20 minutes prior to washing): 5.2 fold
fold increase in apparent KAct for isoproterenol [3, 10]: 13.5 fold
increase in apparent KAct for isoproterenol [3, 10]: 1.1 log units
rightward shift of isoproterenol dose response curves ([3]; 3 μM for 1 hour, washed 17 hours, 30° C.): 1.5 log units
decrease in inhibition of the isoproterenol response on extended washing ([3]; 3 μM for 1 hour, washed 17 hours, vs parallel washed control tissues): no detectable decrease
shift in cumulative isoproterenol dose response curve ([3]; 10 μM for 1 hour, rat atria): 2 log
onset of the inhibitory action ([3]; rat atria): slow
isoproterenol-increased tension development ([3]; time and dose dependent): inhibits
shift in cumulative isoproterenol dose response curve ([7]; 0.1 μM for 1 hour): 0.5 log
shift in cumulative isoproterenol dose response curve ([7]; 10 μM for 1 hour): 2 log
isoproterenol-increased tension development ([7]; time and dose dependent): inhibits
effect on affinity of the remaining receptors for (125I)-iodohydroxybenzylpindolol (β-adrenergic receptors [8]; 80 nM, 40 minutes (37° C.), washed for 3 hours): not accomplished by a change in the affinity

Molecule: CC(C)(Cc1ccc(O)c(I)c1)NCC(O)COc1cccc2[nH]ccc12 (stereo not shown) [(^125 I)-iodohydroxybenzylpindolol, reference compound]
Kd (β-adrenergic receptors [8]; glioma cells, not different between treated and control, read-out: equilibrium dissociation constant (KD) for (125I)-iodohydroxybenzylpindolol): 0.06 nM
